Source: patent US9174995B2, “Pyrrolotriazinone derivatives” (Merck Patent GmbH, priority 2012, dated 2015)

Legend:
His-tagged Parp-1 = target: T1, His-tagged Parp-1 (Homo sapiens, UniProt P09874); test: PARP-1 autoparsylation assay (HTRF); type: biochemical; details: PARP-1 autoparsylation HTRF assay
T1 construct: purchased Enzo Life Sciences GmbH, Lörrach, Germany
From the text: Description of the PARP1 Assay
Biochemical Activity Testing of PARP-1: Autoparsylation Assay
The autoparsylation assay is run in two steps: the enzymatic reaction in which His-tagged Parp-1 transfers biotinylated ADP-ribose/ADP-ribose to itself from biotinylated NAD/NAD as co-substrate and the detection reaction where a time resolved FRET between cryptate labelled anti-His antibody bound to the His tag of the enzyme and Xlent® labelled-streptavidin bound the biotin-parsylation residue is analysed. The autoparsylation activity is detectable directly via the increase in HTRF signal.
The autoparsylation assay is performed as 384-well HTRF® (Cisbio, Codolet, France) assay format in Greiner low volume nb 384-well microtiter plates. 35 nM His-tagged Parp-1 (human, recombinant, Enzo Life Sciences GmbH, Lörrach, Germany) and a mixture of 125 nM bio-NAD (Biolog, Life science Inst., Bremen, Germany) and 800 nM NAD as co-substrate are incubated in a total volume of 6 μl (100 mM Tris/HCl, 4 mM Mg-chloride, 0.01% IGEPAL® CA630, 1 mM DTT, 0.5% DMSO, pH 8, 13 ng/μl activated DNA (BPS Bioscience, San Diego, US)) in the absence or presence of the test compound (10 dilution concentrations) for 150 min at 23° C. The reaction is stopped by the addition of 4 μl of the Stop/detection solution (70 nM SA-Xlent® (Cisbio, Codolet, France), 2.5 nM Anti-His-K® (Eu-labelled anti-His, Cisbio, Codolet, France) in 50 mM HEPES, 400 mM KF, 0.1% BSA, 20 mM EDTA, pH 7.0). After 1 h incubation at room temperature the HTRF is measured with an Envision multimode reader (Perkin Elmer LAS Germany GmbH) at excitation wavelength 340 nm (laser mode) and emission wavelengths 615 nm and 665 nm. The ratio of the emission signals is determined. The full value used is the inhibitor-free reaction. The pharmacological zero value used is Olaparib (LClabs, Woburn, US) in a final concentration of 1 μM. The inhibitory values (IC50) are determined using either the program Symyx Assay Explorer® or Condosseo® from GeneData.

[1] = target: T2, GST-tagged Tnks-1 (1023-1327 aa) (Homo sapiens, UniProt O95271); test: TNKS1 activity ELISA (autoparsylation assay); type: biochemical
T2 construct: GST-tagged Tnks-1 (1023-1327 aa, prepared in-house); made in house
T2 sequence (O95271 1023-1327): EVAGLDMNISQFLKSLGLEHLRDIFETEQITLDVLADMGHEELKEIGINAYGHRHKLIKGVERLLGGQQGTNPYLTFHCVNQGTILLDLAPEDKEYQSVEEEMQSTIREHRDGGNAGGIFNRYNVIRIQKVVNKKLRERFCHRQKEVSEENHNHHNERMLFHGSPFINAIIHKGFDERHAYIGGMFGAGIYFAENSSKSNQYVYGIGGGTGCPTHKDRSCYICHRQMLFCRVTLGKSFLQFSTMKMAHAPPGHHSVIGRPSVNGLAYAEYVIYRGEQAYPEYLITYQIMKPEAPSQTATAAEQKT
Description: Description of the TNKS1 and TNKS2 ELISA Assay
Biochemical Activity Testing of TNKS 1 and 2: Activity ELISA (Autoparsylation Assay)
For analysis of autoparsylation activity of TNKS 1 and 2 an activity ELISA is performed: In the first step GST tagged TNKS is captured on a Glutathione coated plate. Then the activity assay with biotinylated NAD is performed in the absence/presence of the compounds. During the enzymatic reaction GST tagged TNKS transfers biotinylated ADP-ribose to itself from biotinylated NAD as co-substrate. For the detection streptavidin-HRP conjugate is added that binds to the biotinylated TNKS and is thereby captured to the plates. The amount of biotinylated resp. autoparsylated TNKS is detected with a luminescence substrate for HRP. The level of the luminescence signal correlats directly with the amount of autoparsylated TNKS and therefore with activity of TNKS.
The activity ELISA is performed in 384 well Glutathione coated microtiter plates (Express capture Glutathione coated plate, Biocat, Heidelberg, Germany). The plates are pre-equilibrated with PBS. Then the plates are incubated with 50 μl 20 ng/well GST-tagged Tnks-1 (1023-1327 aa, prepared in-house), respectively GST-tagged Tnks-2 (873-1166 aa, prepared in-house) in assay buffer (50 mM HEPES, 4 mM Mg-chloride, 0.05% Pluronic F-68, 2 mM DTT, pH 7.7) overnight at 4° C. The plates are washed 3 times with PBS-Tween-20. The wells are blocked by incubation at room temperature for 20 minutes with 50 μl blocking buffer (PBS, 0.05% Tween-20, 0.5% BSA). Afterwards the plates are washed 3 times with PBS-Tween-20. The enzymatic reaction is performed in 50 μl reaction solution (50 mM HEPES, 4 mM Mg-chloride, 0.05% Pluronic F-68, 1.4 mM DTT, 0.5% DMSO, pH 7.7) with 10 μM bio-NAD (Biolog, Life science Inst., Bremen, Germany) as co-substrate in the absence or presence of the test compound (10 dilution concentrations) for 1 hour at 30° C. The reaction is stopped by 3 times washing with PBS-Tween-20. For the detection 50 μl of 20 ng/μl Streptavidin, HRP conjugate (MoBiTec, Göttingen, Germany) in PBS/0.05%Tween-20/0.01%BSA are added and the plates are incubated for 30 minutes at room temperature. After three times washing with PBS-Tween-20 50 μl of SuperSignal ELISA Femto Maximum sensitivity substrate solution (ThermoFisherScientific (Pierce), Bonn, Germany) are added. Following a 1 minute incubation at room temperature luminescence signals are measured with an Envision multimode reader (Perkin Elmer LAS Germany GmbH) at 700 nm. The full value used is the inhibitor-free reaction. The pharmacological zero value used is XAV-939 (Tocris) in a final concentration of 5 μM. The inhibitory values (IC50) are determined using either the program Symyx Assay Explorer® or Condosseo® from GeneData.

T1 sequence (P09874 whole entry): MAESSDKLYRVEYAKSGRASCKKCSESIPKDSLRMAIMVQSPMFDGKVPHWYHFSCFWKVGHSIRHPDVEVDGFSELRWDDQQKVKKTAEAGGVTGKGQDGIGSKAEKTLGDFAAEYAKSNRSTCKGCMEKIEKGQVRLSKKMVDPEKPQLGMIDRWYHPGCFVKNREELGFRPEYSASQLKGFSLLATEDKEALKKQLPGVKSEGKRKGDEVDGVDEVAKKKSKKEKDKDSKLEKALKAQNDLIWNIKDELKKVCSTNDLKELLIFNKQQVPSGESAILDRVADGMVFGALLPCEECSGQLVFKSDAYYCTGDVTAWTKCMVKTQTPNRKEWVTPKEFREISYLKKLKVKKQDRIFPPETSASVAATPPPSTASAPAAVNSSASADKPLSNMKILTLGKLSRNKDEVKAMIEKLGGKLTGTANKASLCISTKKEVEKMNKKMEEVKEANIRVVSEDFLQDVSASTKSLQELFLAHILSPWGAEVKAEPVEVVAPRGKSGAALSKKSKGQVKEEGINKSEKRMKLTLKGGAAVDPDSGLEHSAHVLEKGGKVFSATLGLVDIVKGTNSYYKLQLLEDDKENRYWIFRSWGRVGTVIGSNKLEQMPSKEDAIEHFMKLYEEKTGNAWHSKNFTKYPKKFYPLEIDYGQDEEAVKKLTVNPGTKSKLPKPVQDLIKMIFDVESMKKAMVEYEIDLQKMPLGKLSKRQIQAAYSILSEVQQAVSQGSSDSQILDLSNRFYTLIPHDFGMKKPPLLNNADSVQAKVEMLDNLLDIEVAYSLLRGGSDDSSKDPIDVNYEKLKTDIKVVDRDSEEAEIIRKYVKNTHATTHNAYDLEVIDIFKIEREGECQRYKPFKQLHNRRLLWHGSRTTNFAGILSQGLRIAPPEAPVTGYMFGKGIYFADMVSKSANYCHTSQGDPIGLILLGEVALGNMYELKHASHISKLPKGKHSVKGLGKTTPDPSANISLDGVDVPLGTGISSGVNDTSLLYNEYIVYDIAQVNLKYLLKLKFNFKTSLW

| Structure (SMILES) | IC50 (His-tagged Parp-1) [µM] | IC50 [1] [µM] |
| --- | --- | --- |
| CC(C)(O)c1ccc(-c2nn3cccc3c(=O)[nH]2)cc1 [Compound A5, 2-[4-(1-hydroxy-1-methyl-ethyl)-phenyl]-3H-pyrrolo[2,1-f][1,2,4]triazin-4-one] | 3 to 50 | < 0.3 |
| Cn1cc(-c2ccc(-c3nn4cccc4c(=O)[nH]3)cc2)cn1 [Compound A7, 2-[4-(1-methyl-1H-pyrazol-4-yl)-phenyl]-3H-pyrrolo[2,1-f][1,2,4]triazin-4-one] | 3 to 50 | < 0.3 |
| Cc1cc2c(=O)[nH]c(-c3ccc(C(C)(C)O)cc3)nn2c1 [Compound A11, 2-[4-(1-hydroxy-1-methyl-ethyl)phenyl]-6-methyl-3H-pyrrolo[2,1-f][1,2,4]triazin-4-one] | 0.3 to 3 | < 0.3 |
| CC(C)(O)c1ccc(-c2nn3cc(F)cc3c(=O)[nH]2)cc1 [Compound A12, 6-fluoro-2-[4-(1-hydroxy-1-methyl-ethyl)phenyl]-3H-pyrrolo[2,1-f][1,2,4]triazin-4-one] | 0.3 to 3 | < 0.3 |
| Cc1cc2c(=O)[nH]c(-c3ccc(-c4cnn(C)c4)cc3)nn2c1 [Compound A13, 6-methyl-2-[4-(1-methylpyrazol-4-yl)phenyl]-3H-pyrrolo-[2,1-f][1,2,4]triazin-4-one] | 3 to 50 | < 0.3 |
| CCC(O)(CC)c1ccc(-c2nn3cccc3c(=O)[nH]2)cc1 [Compound A14, 2-[4-(1-ethyl-1-hydroxy-propyl)-phenyl]-3H-pyrrolo[2,1-f][1,2,4]triazin-4-one] | 3 to 50 | < 0.3 |
| CC(C)(OCCO)c1ccc(-c2nn3cccc3c(=O)[nH]2)cc1 [Compound A15, 2-{4-[1-(2-hydroxy-ethoxy)-1-methyl-ethyl]-phenyl}-3H-pyrrolo[2,1-f][1,2,4]triazin-4-one] | 3 to 50 | < 0.3 |
| CC(C)(O)c1ccc(-c2nn3cc(Cl)cc3c(=O)[nH]2)cc1 [Compound A18, 6-chloro-2-[4-(1-hydroxy-1-methyl-ethyl)-phenyl]-3H-pyrrolo[2,1-f][1,2,4]triazin-4-one] | 3 to 50 | < 0.3 |
| O=c1[nH]c(-c2ccc(C3(O)CCCC3)cc2)nn2cccc12 [Compound A21, 2-[4-(1-hydroxy-cyclopentyl)-phenyl]-3H-pyrrolo[2,1-f][1,2,4]-triazin-4-one] | 3 to 50 | < 0.3 |
